Experimental data: patent US11427558B1, “Indazoles and azaindazoles as LRRK2 inhibitors” (ESCAPE Bio, Inc., priority 2019, dated 2022)

How the values were obtained:
[1] = target: Recombinant wild type LRRK2 protein (Homo sapiens (Human), UniProt Q5S007); experiment: LRRK2 kinase activity, LanthaScreen TR-FRET assay (wild type); type: biochemical; settings: LRRKtide 400 nM, 25 μM ATP, 60 min; read-out: LRRK2 WT IC50
Summary of the method: (§1)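 Recombinant human wild-type or G2019S LRRK2 phosphorylated fluorescein-labelled LRRKtide (ERM-based) with ATP and serially diluted compound for 60 min at room temperature.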

[2] = target: Recombinant G2019S-LRRK2 protein (Homo sapiens (Human), UniProt Q5S007, G2019S); experiment: LRRK2 kinase activity, LanthaScreen TR-FRET assay (G2019S); type: biochemical; settings: LRRKtide 400 nM, 25 μM ATP, 60 min
Summary of the method: as §1

Recombinant G2019S-LRRK2 protein, sequence (Q5S007 whole entry G2019S): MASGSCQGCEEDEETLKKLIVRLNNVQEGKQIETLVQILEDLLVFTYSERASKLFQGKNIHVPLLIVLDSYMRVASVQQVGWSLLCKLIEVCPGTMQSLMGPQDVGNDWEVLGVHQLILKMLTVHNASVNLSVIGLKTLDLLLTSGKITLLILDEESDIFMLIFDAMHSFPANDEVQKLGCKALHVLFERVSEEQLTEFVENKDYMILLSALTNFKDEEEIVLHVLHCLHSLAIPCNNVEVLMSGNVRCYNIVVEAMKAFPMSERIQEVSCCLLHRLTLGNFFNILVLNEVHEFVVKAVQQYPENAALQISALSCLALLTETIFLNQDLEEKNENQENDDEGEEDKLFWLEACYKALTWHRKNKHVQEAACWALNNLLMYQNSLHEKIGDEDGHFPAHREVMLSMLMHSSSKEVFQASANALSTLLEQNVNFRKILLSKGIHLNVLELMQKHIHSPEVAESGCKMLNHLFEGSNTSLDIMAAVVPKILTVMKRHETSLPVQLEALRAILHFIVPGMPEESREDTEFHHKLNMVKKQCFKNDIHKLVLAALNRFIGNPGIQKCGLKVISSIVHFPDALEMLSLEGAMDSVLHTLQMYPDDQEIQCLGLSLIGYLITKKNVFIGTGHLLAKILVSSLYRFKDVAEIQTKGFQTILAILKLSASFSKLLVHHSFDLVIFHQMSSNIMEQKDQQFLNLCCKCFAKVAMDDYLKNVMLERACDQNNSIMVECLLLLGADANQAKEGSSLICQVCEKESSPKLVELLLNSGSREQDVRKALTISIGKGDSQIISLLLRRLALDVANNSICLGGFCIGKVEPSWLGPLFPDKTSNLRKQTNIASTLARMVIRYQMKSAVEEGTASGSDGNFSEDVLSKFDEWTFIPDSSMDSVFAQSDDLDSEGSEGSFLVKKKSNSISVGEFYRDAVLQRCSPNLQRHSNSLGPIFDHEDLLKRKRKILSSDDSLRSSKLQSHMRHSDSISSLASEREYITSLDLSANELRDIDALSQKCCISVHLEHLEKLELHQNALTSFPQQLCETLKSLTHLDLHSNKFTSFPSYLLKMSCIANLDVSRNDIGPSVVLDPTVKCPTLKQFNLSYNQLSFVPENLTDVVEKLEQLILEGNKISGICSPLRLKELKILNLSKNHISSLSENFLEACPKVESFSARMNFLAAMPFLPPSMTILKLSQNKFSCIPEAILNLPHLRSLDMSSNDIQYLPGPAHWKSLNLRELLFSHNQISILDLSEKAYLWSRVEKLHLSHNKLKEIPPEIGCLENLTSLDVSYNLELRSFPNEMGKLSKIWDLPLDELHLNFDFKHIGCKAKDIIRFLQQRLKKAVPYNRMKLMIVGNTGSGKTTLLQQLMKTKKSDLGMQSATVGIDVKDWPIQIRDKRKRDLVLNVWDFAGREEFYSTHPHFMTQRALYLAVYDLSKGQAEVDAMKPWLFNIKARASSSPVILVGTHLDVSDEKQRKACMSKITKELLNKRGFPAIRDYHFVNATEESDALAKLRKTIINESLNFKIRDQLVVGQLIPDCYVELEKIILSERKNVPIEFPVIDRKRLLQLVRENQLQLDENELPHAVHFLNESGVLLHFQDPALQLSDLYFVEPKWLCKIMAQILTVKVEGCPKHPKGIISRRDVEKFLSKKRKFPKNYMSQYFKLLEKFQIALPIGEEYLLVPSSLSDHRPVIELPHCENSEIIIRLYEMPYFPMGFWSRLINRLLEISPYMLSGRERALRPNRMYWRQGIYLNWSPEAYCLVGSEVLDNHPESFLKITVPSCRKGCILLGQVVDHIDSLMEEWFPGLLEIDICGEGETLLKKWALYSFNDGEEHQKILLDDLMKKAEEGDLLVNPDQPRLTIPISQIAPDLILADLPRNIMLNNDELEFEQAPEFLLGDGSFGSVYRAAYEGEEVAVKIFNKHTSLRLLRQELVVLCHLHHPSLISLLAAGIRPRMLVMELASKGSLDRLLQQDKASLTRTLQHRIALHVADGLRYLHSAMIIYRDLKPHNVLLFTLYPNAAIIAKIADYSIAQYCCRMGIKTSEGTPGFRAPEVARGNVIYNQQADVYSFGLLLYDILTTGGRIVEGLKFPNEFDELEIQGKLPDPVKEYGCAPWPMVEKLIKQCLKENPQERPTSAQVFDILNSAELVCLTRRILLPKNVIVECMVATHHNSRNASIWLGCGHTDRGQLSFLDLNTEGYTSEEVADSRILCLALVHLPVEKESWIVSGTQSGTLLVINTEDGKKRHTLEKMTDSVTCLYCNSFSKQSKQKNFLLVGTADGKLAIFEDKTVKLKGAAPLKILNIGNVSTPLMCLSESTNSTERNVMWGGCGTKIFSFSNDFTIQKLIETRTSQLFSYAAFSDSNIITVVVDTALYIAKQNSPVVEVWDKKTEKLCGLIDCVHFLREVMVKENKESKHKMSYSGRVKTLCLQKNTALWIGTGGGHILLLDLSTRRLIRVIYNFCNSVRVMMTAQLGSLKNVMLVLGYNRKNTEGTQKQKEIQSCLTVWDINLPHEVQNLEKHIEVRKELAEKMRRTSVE
Recombinant wild type LRRK2 protein, sequence (Q5S007 whole entry): as the sequence (Q5S007 whole entry G2019S) above, with S2019G counted along it

Row | Structure (SMILES) | IC50 [1] | IC50 [2]
1 | COc1n[nH]c2ccc(NC(=O)c3nc(Br)c(C#N)c(C)c3C)cc12 [Example 329, 6-Bromo-5-cyano-N-(3-methoxy-1H-indazol-5-yl)-3,4-dimethylpicolinamide] | < 100 nM | < 100 nM
2 | Cc1c(C(=O)Nc2ccc3[nH]nc(C4CC4)c3c2)nc(Br)c(C#N)c1C [Example 330, 6-Bromo-5-cyano-N-(3-cyclopropyl-1H-indazol-5-yl)-3,4-dimethylpicolinamide] | < 100 nM | < 100 nM
3 | Cc1c(Cl)c(C(=O)Nc2ccc3[nH]nc(C4CC4)c3c2)nc(Cl)c1C#N [Example 331, 3,6-Dichloro-5-cyano-N-(3-cyclopropyl-1H-indazol-5-yl)-4-methylpicolinamide] | < 100 nM | < 100 nM
4 | C=Cc1nc(C(=O)Nc2ccc3[nH]nc(C4CC4)c3c2)c(C)c(C)c1C#N [Example 332, 5-Cyano-N-(3-cyclopropyl-1H-indazol-5-yl)-3,4-dimethyl-6-vinylpicolinamide] | 100 to 1000 nM | < 100 nM
5 | CCc1nc(C(=O)Nc2ccc3[nH]nc(C4CC4)c3c2)c(C)c(C)c1C#N [Example 333, 5-Cyano-N-(3-cyclopropyl-1H-indazol-5-yl)-6-ethyl-3,4-dimethylpicolinamide] | 100 to 1000 nM | < 100 nM
6 | Cc1c(C(=O)Nc2ccc3[nH]nc(C4CC4)c3c2)nc(C2CC2)c(C#N)c1C [Example 334, 5-Cyano-6-cyclopropyl-N-(3-cyclopropyl-1H-indazol-5-yl)-3,4-dimethylpicolinamide] | 100 to 1000 nM | < 100 nM
7 | Cc1c(C#N)cnc(C(=O)Nc2ccc3[nH]nc(-c4cnn(C5CC5)c4)c3c2)c1C [Example 335, 5-Cyano-N-(3-(1-cyclopropyl-1H-pyrazol-4-yl)-1H-indazol-5-yl)-3,4-dimethylpicolinamide] | < 100 nM | < 100 nM
